According to patent US4745185A, “D-arabinose-1,5-diphosphate salts and methods for the treatment of diabetes” (McNeilab, Inc., priority 1985, dated 1988):

What was measured:
[1] = biological target: T1, fructose-1,6-biphosphatase (Rattus norvegicus, UniProt P19112); experiment: Rat liver fructose-1,6-biphosphatase inhibition; format: biochemical; conditions: competitive inhibitors; rat liver enzyme, in vitro
T1 construct: from tissue; host or cells: rat liver
T1 sequence (P19112 2-363 limits assumed): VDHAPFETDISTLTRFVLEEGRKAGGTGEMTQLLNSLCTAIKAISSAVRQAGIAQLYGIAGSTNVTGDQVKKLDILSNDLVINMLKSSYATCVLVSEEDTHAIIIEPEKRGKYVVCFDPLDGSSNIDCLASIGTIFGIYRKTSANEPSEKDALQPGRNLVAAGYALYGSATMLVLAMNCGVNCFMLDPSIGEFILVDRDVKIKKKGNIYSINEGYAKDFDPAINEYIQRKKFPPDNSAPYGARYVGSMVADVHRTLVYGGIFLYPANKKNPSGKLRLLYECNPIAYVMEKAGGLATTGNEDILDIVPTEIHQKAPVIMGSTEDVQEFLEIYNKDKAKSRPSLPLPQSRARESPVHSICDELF
Source text: (§1) The utility of compounds of the invention of formula (I) as hypoglycemic agents may be determined by measurement of Ki values as competitive inhibitors of rat liver fructose-1,6-biphosphatase and by measurement of half-maximal concentrations as allosteric activators of rat liver 6-phosphofructo-1-kinase, both of these tests being in vitro. An in vivo test for the activity of compounds of the invention is the Epinephrine-Induced Hyperglycemic Model (EIHM). In the EIHM, male Sprague-Dawley rats from Charles River Laboratories, average weight 200-280 grams, maintained on Lab-Blox® rat chow (Wayne) and provided water ad libitum were used throughout all studies; rats were fasted 18-24 hours prior to treatment with epinephrine (0.2 mg/kg i.p.) which was given intraperitoneally. Drug or vehicle were given 30 minutes prior to epinephrine. Blood samples were taken from the tail vein for measurement of glucose changes prior to and at 45 and 90 minutes after administration of epinephrine bitartrate (Sigma Co., St. Louis, MO). Blood glucose was determined using Autoflo Glucose (Bio-Dyanamics/bmc, Indianapolis, IN).
1. Rat liver fructose-1,6-biphosphatase inhibition*:
*Methodology as described by S. J. Benkovic, et al. in Biochemistry, Vol. 10, No. 26, pp. 4881-4887 (1971).

6-phosphofructo-1-kinase [2] = biological target: T2, 6-phosphofructo-1-kinase (Rattus norvegicus, UniProt P30835); experiment: Allosteric activation of rat liver 6-phosphofructo-1-kinase; format: biochemical; conditions: rat liver enzyme, in vitro; read-out: half-maximal concentration, allosteric activation
T2 construct: from tissue; host or cells: rat liver
T2 sequence (P30835 2-780 limits assumed): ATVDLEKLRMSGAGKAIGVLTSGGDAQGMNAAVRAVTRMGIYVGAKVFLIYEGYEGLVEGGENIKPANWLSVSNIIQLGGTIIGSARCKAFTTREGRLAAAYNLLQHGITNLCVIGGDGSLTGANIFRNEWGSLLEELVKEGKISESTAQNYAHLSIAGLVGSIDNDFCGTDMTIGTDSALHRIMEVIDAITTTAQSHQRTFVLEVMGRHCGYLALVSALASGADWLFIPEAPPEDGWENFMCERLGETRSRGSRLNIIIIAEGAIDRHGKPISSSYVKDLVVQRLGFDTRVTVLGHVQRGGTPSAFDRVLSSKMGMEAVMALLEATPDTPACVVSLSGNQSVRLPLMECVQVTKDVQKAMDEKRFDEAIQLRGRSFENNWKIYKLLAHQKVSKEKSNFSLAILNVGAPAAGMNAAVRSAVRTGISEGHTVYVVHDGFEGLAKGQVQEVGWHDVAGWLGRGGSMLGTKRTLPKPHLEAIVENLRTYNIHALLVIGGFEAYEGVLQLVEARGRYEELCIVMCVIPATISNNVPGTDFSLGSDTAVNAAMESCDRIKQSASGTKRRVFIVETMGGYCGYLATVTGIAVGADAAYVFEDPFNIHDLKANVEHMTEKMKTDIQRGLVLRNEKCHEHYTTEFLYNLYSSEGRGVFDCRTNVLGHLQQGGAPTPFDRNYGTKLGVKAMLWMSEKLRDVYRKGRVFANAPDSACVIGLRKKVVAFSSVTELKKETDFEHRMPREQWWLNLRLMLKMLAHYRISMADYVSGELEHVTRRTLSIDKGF
Source text: as §1
2. Allosteric activation of rat liver 6-phosphofructo-1-kinase
reported as half-maximal concentrations; methodology as described by S. J. Pilkis, et al. in The Journal of Biol. Chem., Vol. 256, pp. 3171 (1981).

blood glucose = experiment: Epinephrine-Induced Hyperglycemic Model (EIHM), in vivo; set-up: species or system male Sprague-Dawley rats; conditions: for maximum % lowering (blood glucose): 100 mg/kg i.p., given 30 minutes prior to epinephrine (0.2 mg/kg i.p.), fasted rats, glucose at 45 and 90 minutes
Source text: as §1
**reported as maximum % lowering; methodology as described by G. F. Tutwiler in Biochemical Medicine, Vol. 22, pp. 204 (1979).

6-phosphofructo-1-kinase [3] = conditions: cited from earlier work
[4] = tested on: fructose-1,6-biphosphatase; conditions: cited from earlier work

Row | Ki [1] [nM] | EC50 (6-phosphofructo-1-kinase [2]) [nM] | Structure (SMILES) | maximum % lowering (blood glucose) (blood glucose) [%] | part of the drug effect due to the cyclohexylamine base (blood glucose; cyclohexylamine base used to crystallize Example 1d, Example 1d at 100 mg/kg i.p.) | stimulation of 6-phosphofructo-1-kinase (in words) (6-phosphofructo-1-kinase [3]) | inhibition of fructose-1,6-biphosphatase (in words) [4]
1 | 3400 | 1000 | O=P(O)(O)OC[C@H]1O[C@@H](OP(=O)(O)O)[C@@H](O)[C@@H]1O [Example 1d, β-D-Arabinose-1,5-diphosphate] | 85 |  |  | 
2 | 30000 to 40000 | 500 | O=P(O)(O)OC[C@H]1O[C@H](OP(=O)(O)O)[C@@H](O)[C@@H]1O [Example 2b, α-D-Arabinose-1,5-diphosphate] |  |  |  | 
3 |  |  | NC1CCCCC1 [cyclohexylamine] |  | approximately one-half of the drug effect |  | 
4 | 100 to 200 | 50 | O=P(O)(O)OC[C@H]1O[C@@](CO)(OP(=O)(O)O)[C@@H](O)[C@@H]1O [Compound (A), β-D-fructose-2,6-diphosphate, reference compound] | 0 |  | activates glycolysis by stimulating 6-phosphofructo-1-kinase | deactivates gluconeogenesis by inhibiting fructose-1,6-biphosphatase
